Results as given in the NIST ThermoML archive (doi:10.1021/je200721d).
Numbers after ± are expanded uncertainties.

Experiment: xn = mol fraction of the nth substance listed
Settings: Liquid, Vibrating tube method

CCCCCCCCCC [decane] + CCCCCC
Settings	mass density [kg/m3]
313.18 K, 22000 kPa, x2 = 0.7524	687.87 ± 0.45
313.18 K, 23000 kPa, x2 = 0.0456	730.42 ± 0.41
313.18 K, 23000 kPa, x2 = 0.7524	688.65 ± 0.46
313.18 K, 24000 kPa, x2 = 0.0456	731.08 ± 0.41
313.18 K, 24000 kPa, x2 = 0.7524	689.4 ± 0.47
313.18 K, 25000 kPa, x2 = 0.0456	731.73 ± 0.42
313.18 K, 25000 kPa, x2 = 0.7524	690.14 ± 0.47
313.21 K, 1000 kPa, x2 = 0.4968	688.23 ± 0.26
313.21 K, 2000 kPa, x2 = 0.4968	689.24 ± 0.27
313.21 K, 3000 kPa, x2 = 0.4968	690.26 ± 0.27
313.21 K, 4000 kPa, x2 = 0.4968	691.19 ± 0.28
313.21 K, 5000 kPa, x2 = 0.4968	692.15 ± 0.29
313.21 K, 6000 kPa, x2 = 0.4968	693.12 ± 0.3
313.21 K, 7000 kPa, x2 = 0.4968	694.03 ± 0.3
313.21 K, 8000 kPa, x2 = 0.4968	694.95 ± 0.31
313.21 K, 9000 kPa, x2 = 0.4968	695.84 ± 0.32
313.21 K, 10000 kPa, x2 = 0.4968	696.74 ± 0.33
313.21 K, 10990 kPa, x2 = 0.4968	697.6 ± 0.33
313.21 K, 12000 kPa, x2 = 0.4968	698.47 ± 0.34
313.21 K, 13000 kPa, x2 = 0.4968	699.32 ± 0.35
313.21 K, 14000 kPa, x2 = 0.4968	700.16 ± 0.36
313.21 K, 15000 kPa, x2 = 0.4968	700.95 ± 0.37
313.21 K, 16000 kPa, x2 = 0.4968	701.76 ± 0.38
313.21 K, 17000 kPa, x2 = 0.4968	702.55 ± 0.38
313.21 K, 18000 kPa, x2 = 0.4968	703.34 ± 0.39
313.21 K, 19000 kPa, x2 = 0.4968	704.08 ± 0.4
313.21 K, 20000 kPa, x2 = 0.4968	704.83 ± 0.41
313.21 K, 21000 kPa, x2 = 0.4968	705.58 ± 0.42
313.21 K, 22000 kPa, x2 = 0.4968	706.34 ± 0.43
313.21 K, 23000 kPa, x2 = 0.4968	707.05 ± 0.43
313.21 K, 24000 kPa, x2 = 0.4968	707.76 ± 0.44
313.21 K, 25000 kPa, x2 = 0.4968	708.45 ± 0.45
322.99 K, 1000 kPa, x2 = 0.8991	645.29 ± 0.27
322.99 K, 2000 kPa, x2 = 0.8991	646.4 ± 0.28
322.99 K, 3000 kPa, x2 = 0.8991	647.52 ± 0.29
322.99 K, 4000 kPa, x2 = 0.8991	648.64 ± 0.3
322.99 K, 5000 kPa, x2 = 0.8991	649.64 ± 0.31
322.99 K, 6000 kPa, x2 = 0.8991	650.89 ± 0.32
322.99 K, 7000 kPa, x2 = 0.8991	652.02 ± 0.33
322.99 K, 8000 kPa, x2 = 0.8991	653.14 ± 0.34
322.99 K, 9000 kPa, x2 = 0.8991	654.27 ± 0.34
322.99 K, 10000 kPa, x2 = 0.8991	655.38 ± 0.35
322.99 K, 11000 kPa, x2 = 0.8991	656.46 ± 0.36
322.99 K, 12000 kPa, x2 = 0.8991	657.57 ± 0.37
322.99 K, 13000 kPa, x2 = 0.8991	658.64 ± 0.38
322.99 K, 14000 kPa, x2 = 0.8991	659.7 ± 0.39
322.99 K, 15000 kPa, x2 = 0.8991	660.74 ± 0.4
322.99 K, 16000 kPa, x2 = 0.8991	661.75 ± 0.41
322.99 K, 17000 kPa, x2 = 0.8991	662.76 ± 0.42
322.99 K, 18000 kPa, x2 = 0.8991	663.71 ± 0.43
322.99 K, 19000 kPa, x2 = 0.8991	664.67 ± 0.44
322.99 K, 20000 kPa, x2 = 0.8991	665.59 ± 0.45
322.99 K, 21000 kPa, x2 = 0.8991	666.49 ± 0.46
322.99 K, 22000 kPa, x2 = 0.8991	667.35 ± 0.47
322.99 K, 23000 kPa, x2 = 0.8991	668.19 ± 0.48
322.99 K, 24000 kPa, x2 = 0.8991	669.02 ± 0.49
322.99 K, 25000 kPa, x2 = 0.8991	669.89 ± 0.5
323.14 K, 1000 kPa, x2 = 0.0456	705.56 ± 0.25
323.14 K, 1000 kPa, x2 = 0.2185	697.1 ± 0.26
323.14 K, 1000 kPa, x2 = 0.4968	679.98 ± 0.26
323.14 K, 2000 kPa, x2 = 0.0456	706.52 ± 0.26
323.14 K, 2000 kPa, x2 = 0.2185	698.02 ± 0.26
323.14 K, 2000 kPa, x2 = 0.4968	681.03 ± 0.27
323.14 K, 3000 kPa, x2 = 0.0456	707.47 ± 0.27
323.14 K, 3000 kPa, x2 = 0.2185	698.97 ± 0.27
323.14 K, 3000 kPa, x2 = 0.4968	682.14 ± 0.28
323.14 K, 4000 kPa, x2 = 0.0456	708.4 ± 0.27
323.14 K, 4000 kPa, x2 = 0.2185	699.88 ± 0.28
323.14 K, 4000 kPa, x2 = 0.4968	683.21 ± 0.28
323.14 K, 5000 kPa, x2 = 0.0456	709.32 ± 0.28
323.14 K, 5000 kPa, x2 = 0.2185	700.82 ± 0.28
323.14 K, 5000 kPa, x2 = 0.4968	684.24 ± 0.29
323.14 K, 6000 kPa, x2 = 0.0456	710.22 ± 0.29
323.14 K, 6000 kPa, x2 = 0.2185	701.75 ± 0.29
323.14 K, 6000 kPa, x2 = 0.4968	685.27 ± 0.3
323.14 K, 7000 kPa, x2 = 0.0456	711.11 ± 0.29
323.14 K, 7000 kPa, x2 = 0.2185	702.67 ± 0.3
323.14 K, 7000 kPa, x2 = 0.4968	686.28 ± 0.31
323.14 K, 8000 kPa, x2 = 0.0456	711.99 ± 0.3
323.14 K, 8000 kPa, x2 = 0.2185	703.58 ± 0.3
323.14 K, 8000 kPa, x2 = 0.4968	687.29 ± 0.31
323.14 K, 9000 kPa, x2 = 0.0456	712.86 ± 0.31
323.14 K, 9000 kPa, x2 = 0.2185	704.45 ± 0.31
323.14 K, 9000 kPa, x2 = 0.4968	688.27 ± 0.32
323.14 K, 10000 kPa, x2 = 0.0456	713.72 ± 0.31
323.14 K, 10000 kPa, x2 = 0.2185	705.32 ± 0.32
323.14 K, 10000 kPa, x2 = 0.4968	689.22 ± 0.33
323.14 K, 10990 kPa, x2 = 0.0456	714.56 ± 0.32
323.14 K, 10990 kPa, x2 = 0.2185	706.19 ± 0.33
323.14 K, 10990 kPa, x2 = 0.4968	690.14 ± 0.34
323.14 K, 12000 kPa, x2 = 0.0456	715.39 ± 0.33
323.14 K, 12000 kPa, x2 = 0.2185	707.05 ± 0.33
323.14 K, 12000 kPa, x2 = 0.4968	691.07 ± 0.35
323.14 K, 13000 kPa, x2 = 0.0456	716.21 ± 0.34
